Data as given in ChEMBL document CHEMBL1201862, “PubChem BioAssay data set” (2004).
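Each compound was tested at five concentrations against cells in 96-well plates for 48 hours. GI50: concentration for 50% inhibition of growth.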 Activity calls are given as the source filed them. Cut-off read from the data, not from the text of the source: active = GI50 up to about 1.1 µM and inactive = higher.

What was measured:
Assay in all cases: NCI tumour cell line growth inhibition, 48 h
IGROV-1 = tested on: IGROV-1
RPMI-8226 = tested on: RPMI-8226
NCI-H460 = tested on: NCI-H460
SF-539 = tested on: SF-539
HOP-62 = tested on: HOP-62
TK-10 = tested on: TK-10
SR = tested on: SR
MDA-N = tested on: MDA-N
COLO 205 = tested on: COLO 205
KM12 = tested on: KM12
BT-549 = tested on: BT-549
U-251 = tested on: U-251
UACC-62 = tested on: UACC-62
SK-MEL-2 = tested on: SK-MEL-2
CCRF-CEM = tested on: CCRF-CEM
SF-295 = tested on: SF-295
SW-620 = tested on: SW-620
MDA-MB-435 = tested on: MDA-MB-435
NCI-H522 = tested on: NCI-H522
HT-29 = tested on: HT-29

Which results are given for `COc1ccc(C(c2ccc(OC)cc2)N2C(=O)CCC2C(=O)O)cc1` (stereo not given)?
GI50 (IGROV-1): > 100 µM (inactive); GI50 (RPMI-8226): > 100 µM (inactive); GI50 (NCI-H460): > 100 µM (inactive); GI50 (SF-539): > 100 µM (inactive); GI50 (HOP-62): > 100 µM (inactive); GI50 (TK-10): > 100 µM (inactive); GI50 (SR): > 100 µM (inactive); GI50 (MDA-N): > 100 µM (inactive); GI50 (COLO 205): > 100 µM (inactive); GI50 (KM12): > 100 µM (inactive); GI50 (BT-549): > 100 µM (inactive); GI50 (U-251): > 100 µM (inactive); GI50 (UACC-62): > 100 µM (inactive); GI50 (SK-MEL-2): > 100 µM (inactive); GI50 (CCRF-CEM): > 100 µM (inactive); GI50 (SF-295): > 100 µM (inactive); GI50 (SW-620): > 100 µM (inactive); GI50 (MDA-MB-435): > 100 µM (inactive); GI50 (NCI-H522): > 100 µM (inactive); GI50 (HT-29): > 100 µM (inactive)

How did the GI50 (IGROV-1) turn out when `COc1cc2cc(C(=O)N3CC(CCl)c4c3cc(N)c3ccccc43)[nH]c2c(OC)c1OC` (stereo not given) was run?
Its GI50 is < 0.01 µM (active).

What about the GI50 (RPMI-8226) of the same molecule?
The GI50 was < 0.01 µM (active).

And the GI50 (NCI-H460)?
The GI50 was < 0.01 µM (active).

And the GI50 (SF-539)?
The GI50 was < 0.01 µM (active).

What about the GI50 (HOP-62) of the same molecule?
The GI50 was < 0.01 µM (active).

And the GI50 (TK-10)?
The GI50 was < 0.01 µM (active).

And the GI50 (SR)?
Its GI50 is < 0.01 µM (active).

What about the GI50 (MDA-N) of the same molecule?
Its GI50 is < 0.01 µM (active).

What about the GI50 (COLO 205) of the same molecule?
The GI50 was < 0.01 µM (active).

And the GI50 (KM12)?
The GI50 was < 0.01 µM (active).

And the GI50 (BT-549)?
The GI50 was < 0.01 µM (active).

And the GI50 (U-251)?
The GI50 was < 0.01 µM (active).

And the GI50 (UACC-62)?
The GI50 was < 0.01 µM (active).

What about the GI50 (SK-MEL-2) of the same molecule?
Its GI50 is < 0.01 µM (active).

What about the GI50 (CCRF-CEM) of the same molecule?
The GI50 was < 0.01 µM (active).

What about the GI50 (SF-295) of the same molecule?
Its GI50 is < 0.01 µM (active).

And the GI50 (SW-620)?
Its GI50 is < 0.01 µM (active).

And the GI50 (MDA-MB-435)?
Its GI50 is < 0.01 µM (active).

What about the GI50 (NCI-H522) of the same molecule?
The GI50 was < 0.01 µM (active).

And the GI50 (HT-29)?
The GI50 was < 0.01 µM (active).

What does the source list for `Cc1cc2ccccc2n1CC(=O)NCC(C)C`?
GI50 (IGROV-1): > 100 µM (inactive); GI50 (RPMI-8226): > 100 µM (inactive); GI50 (NCI-H460): > 100 µM (inactive); GI50 (SF-539): > 100 µM (inactive); GI50 (HOP-62): > 100 µM (inactive); GI50 (TK-10): > 100 µM (inactive); GI50 (SR): > 100 µM (inactive); GI50 (MDA-N): > 100 µM (inactive); GI50 (COLO 205): > 100 µM (inactive); GI50 (KM12): > 100 µM (inactive); GI50 (BT-549): > 100 µM (inactive); GI50 (U-251): > 100 µM (inactive); GI50 (UACC-62): > 100 µM (inactive); GI50 (SK-MEL-2): > 100 µM (inactive); GI50 (CCRF-CEM): > 100 µM (inactive); GI50 (SF-295): > 100 µM (inactive); GI50 (SW-620): > 100 µM (inactive); GI50 (MDA-MB-435): > 100 µM (inactive); GI50 (NCI-H522): > 100 µM (inactive); GI50 (HT-29): > 100 µM (inactive)

For `Cc1ccc(-c2nc3cc(Cl)ccc3[nH]2)cc1`, which GI50 (IGROV-1) is on record?
The GI50 was > 100 µM (inactive).

What about the GI50 (RPMI-8226) of the same molecule?
The GI50 was 46.8 µM (inactive).

What about the GI50 (NCI-H460) of the same molecule?
Its GI50 is > 100 µM (inactive).

And the GI50 (SF-539)?
The GI50 was > 100 µM (inactive).

And the GI50 (HOP-62)?
Its GI50 is > 100 µM (inactive).

What about the GI50 (TK-10) of the same molecule?
Its GI50 is > 100 µM (inactive).

What about the GI50 (SR) of the same molecule?
Its GI50 is 3.38 µM (inactive).

What about the GI50 (MDA-N) of the same molecule?
Its GI50 is 42.5 µM (inactive).

And the GI50 (COLO 205)?
Its GI50 is 71.6 µM (inactive).

And the GI50 (KM12)?
Its GI50 is 46.8 µM (inactive).

What about the GI50 (BT-549) of the same molecule?
The GI50 was > 100 µM (inactive).

And the GI50 (U-251)?
The GI50 was > 100 µM (inactive).

What about the GI50 (UACC-62) of the same molecule?
Its GI50 is > 100 µM (inactive).

And the GI50 (SK-MEL-2)?
The GI50 was > 100 µM (inactive).

What about the GI50 (CCRF-CEM) of the same molecule?
The GI50 was > 100 µM (inactive).

What about the GI50 (SF-295) of the same molecule?
Its GI50 is > 100 µM (inactive).

And the GI50 (SW-620)?
The GI50 was > 100 µM (inactive).

And the GI50 (MDA-MB-435)?
Its GI50 is 54.1 µM (inactive).

And the GI50 (NCI-H522)?
The GI50 was 91.2 µM (inactive).

What about the GI50 (HT-29) of the same molecule?
The GI50 was 49 µM (inactive).

With `COCOC1/C=C/CCCCC2=C(C)C=C(C1)O2` (stereo not given) as the molecule, how does the GI50 (IGROV-1) read?
The GI50 was > 100 µM (inactive).

What about the GI50 (RPMI-8226) of the same molecule?
The GI50 was > 100 µM (inactive).

What about the GI50 (NCI-H460) of the same molecule?
Its GI50 is > 100 µM (inactive).

And the GI50 (SF-539)?
The GI50 was > 100 µM (inactive).

And the GI50 (HOP-62)?
The GI50 was > 100 µM (inactive).

What about the GI50 (TK-10) of the same molecule?
Its GI50 is > 100 µM (inactive).

What about the GI50 (SR) of the same molecule?
The GI50 was > 100 µM (inactive).

What about the GI50 (MDA-N) of the same molecule?
Its GI50 is > 100 µM (inactive).

What about the GI50 (COLO 205) of the same molecule?
Its GI50 is > 100 µM (inactive).

And the GI50 (KM12)?
Its GI50 is > 100 µM (inactive).

And the GI50 (BT-549)?
Its GI50 is > 100 µM (inactive).

What about the GI50 (U-251) of the same molecule?
Its GI50 is > 100 µM (inactive).

And the GI50 (UACC-62)?
The GI50 was > 100 µM (inactive).

And the GI50 (SK-MEL-2)?
The GI50 was > 100 µM (inactive).

And the GI50 (CCRF-CEM)?
Its GI50 is > 100 µM (inactive).

What about the GI50 (SF-295) of the same molecule?
The GI50 was > 100 µM (inactive).

And the GI50 (SW-620)?
The GI50 was > 100 µM (inactive).

And the GI50 (MDA-MB-435)?
The GI50 was > 100 µM (inactive).

And the GI50 (NCI-H522)?
Its GI50 is > 100 µM (inactive).

And the GI50 (HT-29)?
Its GI50 is > 100 µM (inactive).

`Cc1ccc(S(=O)(=O)N2CCNCCN(S(=O)(=O)c3ccc(C)cc3)CCN(S(=O)(=O)c3ccc(C)cc3)CC2)cc1` was tested. Which GI50 (IGROV-1) did it give?
Its GI50 is > 100 µM (inactive).

And the GI50 (RPMI-8226)?
The GI50 was > 100 µM (inactive).

And the GI50 (NCI-H460)?
The GI50 was > 100 µM (inactive).

What about the GI50 (SF-539) of the same molecule?
Its GI50 is > 100 µM (inactive).

What about the GI50 (HOP-62) of the same molecule?
The GI50 was > 100 µM (inactive).

And the GI50 (TK-10)?
Its GI50 is > 100 µM (inactive).

What about the GI50 (SR) of the same molecule?
The GI50 was > 100 µM (inactive).

And the GI50 (MDA-N)?
Its GI50 is > 100 µM (inactive).

And the GI50 (COLO 205)?
Its GI50 is > 100 µM (inactive).

And the GI50 (KM12)?
Its GI50 is > 100 µM (inactive).

What about the GI50 (BT-549) of the same molecule?
The GI50 was > 100 µM (inactive).

And the GI50 (U-251)?
The GI50 was > 100 µM (inactive).

And the GI50 (UACC-62)?
The GI50 was > 100 µM (inactive).

And the GI50 (SK-MEL-2)?
The GI50 was > 100 µM (inactive).

And the GI50 (CCRF-CEM)?
Its GI50 is > 100 µM (inactive).

What about the GI50 (SF-295) of the same molecule?
Its GI50 is > 100 µM (inactive).

What about the GI50 (SW-620) of the same molecule?
Its GI50 is > 100 µM (inactive).

What about the GI50 (MDA-MB-435) of the same molecule?
The GI50 was > 100 µM (inactive).

What about the GI50 (NCI-H522) of the same molecule?
Its GI50 is > 100 µM (inactive).

And the GI50 (HT-29)?
The GI50 was > 100 µM (inactive).

For `COc1nc2nccnc2c(=O)n1C`, which GI50 (IGROV-1) is on record?
The GI50 was > 10 µM (inactive).

What about the GI50 (RPMI-8226) of the same molecule?
Its GI50 is > 10 µM (inactive).

And the GI50 (NCI-H460)?
The GI50 was > 10 µM (inactive).

What about the GI50 (SF-539) of the same molecule?
The GI50 was > 10 µM (inactive).

What about the GI50 (HOP-62) of the same molecule?
The GI50 was > 10 µM (inactive).

And the GI50 (TK-10)?
Its GI50 is > 10 µM (inactive).

And the GI50 (SR)?
Its GI50 is > 10 µM (inactive).

And the GI50 (MDA-N)?
Its GI50 is > 10 µM (inactive).

What about the GI50 (COLO 205) of the same molecule?
The GI50 was > 10 µM (inactive).

What about the GI50 (KM12) of the same molecule?
The GI50 was > 10 µM (inactive).

And the GI50 (BT-549)?
The GI50 was > 10 µM (inactive).

What about the GI50 (U-251) of the same molecule?
Its GI50 is > 10 µM (inactive).

What about the GI50 (UACC-62) of the same molecule?
The GI50 was > 10 µM (inactive).

What about the GI50 (SK-MEL-2) of the same molecule?
The GI50 was > 10 µM (inactive).

What about the GI50 (CCRF-CEM) of the same molecule?
Its GI50 is > 10 µM (inactive).

What about the GI50 (SF-295) of the same molecule?
The GI50 was > 10 µM (inactive).

And the GI50 (SW-620)?
Its GI50 is > 10 µM (inactive).

And the GI50 (MDA-MB-435)?
Its GI50 is > 10 µM (inactive).

What about the GI50 (NCI-H522) of the same molecule?
Its GI50 is > 10 µM (inactive).

What about the GI50 (HT-29) of the same molecule?
The GI50 was > 10 µM (inactive).
